Experiments:
[1] = tested on: human gastric mucosal epithelial cell line GES-1; assay: Proliferation of GES-1 cells (CCK8, 48 hours); assay type: cell-based; settings: for effect on the proliferation of GES-1: 25 μM to 400 μm, 48 hours
Protocol: (§1) At 37° C. and 5% CO2, human gastric cancer cell line HGC-27 cells and human gastric mucosal epithelial cell line GES-1 cells (coming from China Center for Type Culture Collection (Wuhan, China)) are respectively cultured in RPMI Medium Modified (Hyclone, SH30809.01) and Dulbecco's Modified Eagle's Medium-high glucose (Sigma, D6429), in which 10% fetal calf serum (Gibco, 10270-106) and 1% penicillin-streptomycin (Gibco, 15140-122) are supplemented.
The cytotoxicity of GES-1 cells by trans-1,3-dilinolein is determined. 10000 cells are plated in a 96-well plate, and each well is added with 100 μL medium. 12 hours after cell attachment, each well is given 100 μL normal medium that contained different concentrations (0 μM, 6.25 μM, 12.5 μM, 25 μM, 50 μM, 100 μM, 200 μM, 400 μM, 800 μM, 1000 μM) of trans-1,3-dilinolein and had been preheated, and cultured in incubators under the conditions of 5% CO2, 37° C., normal oxygen and 1% oxygen respectively for 48 hours. The medium in each well is drawn, and serum-free medium is added into each well to formulate 60 μL CCK8 (ABMole BioScience) at 1/11 the initial concentration, which are correspondingly incubated in incubators under the conditions of 5% CO2, 37° C., normal oxygen and 1% oxygen for 40 minutes. The absorbance at 450 nm is determined with a microplate reader (Thermo Scientific).
(§2) Two-side Student's t-test is conducted by using EXCEL to determine the statistical significance of two groups of measurements. P value<0.05 is considered to be statistically significant. Unless otherwise specified, all data are expressed as mean ±standard deviation.

[2] = tested on: human gastric cancer cell line HGC-27; assay: Cytotoxicity to HGC-27 cells (MTS, 48 hours); assay type: cell-based; settings: for killing of gastric cancer cells: concentration of 300 μm and more; for killing effect on HGC-27: 0-500 μM, 48 hours
Protocol: as §1
The cytotoxicity of HGC-27 cells by trans-1,3-dilinolein is determined. 5000 cells are plated in a 96-well plate, and each well is added with 100 μL medium. 12 hours after cell attachment, each well is given 100 μL normal medium that contained different concentrations (0 μM, 50 μM, 100 μM, 200 μM, 300 μM, 400 μM, 500 μM) of trans-1,3-dilinolein and had been preheated, and cultured in incubators under the conditions of 5% CO2, 37° C., normal oxygen and 1% oxygen respectively for 48 hours. The medium in each well is drawn, and serum-free medium is added into each well to formulate 60 μL MTS (Promega) at ⅙ the initial concentration, which are correspondingly incubated in incubators under the conditions of 5% CO2, 37° C., normal oxygen and 1% oxygen for 2 hours. The absorbance at 490 nm is determined with a microplate reader (Thermo Scientific).
as §2

In the case of `CCCCC/C=C/C/C=C/CCCCCCCC(=O)OCC(O)COC(=O)CCCCCCC/C=C/C/C=C/CCCCC` [trans-1,3-dilinolein, [2-hydroxy-3-[(9E,12E)-octadeca-9,12-dienoyl]oxypropyl](9E,12E)-octadeca-9,12-dienoate], the “proliferation of normal gastric mucosal epithelial cells” value ([1]; concentration of 300 μm and more) is reported as “significantly promote the proliferation”, the “effect on the proliferation of GES-1” value ([1]; hypoxic (1% oxygen), FIG. 4B) is reported as “promotion effects on the proliferation” and the “effect on the proliferation of GES-1” value ([1]; normal oxygen, FIG. 4A) is reported as “promotion effects on the proliferation”. The “killing of gastric cancer cells” value ([2]; hypoxic conditions compared with normal oxygen) was “the killing effect is more significant”, the “killing of gastric cancer cells” value ([2]; normal oxygen) was “kills gastric cancer cells significantly” and the “killing effect on HGC-27” value ([2]; hypoxic (1% oxygen) compared with normal oxygen, FIG. 4D) was “stronger killing effect”. The “killing effect on HGC-27” value ([2]; normal oxygen, FIG. 4C) was “concentration-dependent killing effect”.

From patent US11744818B2, “Application of trans-1,3-dilinolein in the preparation of medicaments for treating gastric cancer, stomachic tonic, health products and foods” (Lanzhou University, priority 2021, dated 2023)
